# System: Klebsiella pneumoniae
# Experiment: Antibacterial activity against Klebsiella pneumoniae CICC 20093 after 16 to 18 hrs by broth microdilution method
# Type: functional
# Conditions: time 16-18 hrs
row,Structure (SMILES),MIC [µg/mL]
1,CCCC[C@H](CN(O)C=O)C(=O)N1CCC[C@H]1C(=O)Nc1ccc(F)c[n+]1[O-],64
2,CC(=O)NC[C@H]1CN(c2ccc(N3CCOCC3)c(F)c2)C(=O)O1 [LINEZOLID],128

# System: Staphylococcus aureus
# Experiment: Antibacterial activity against methicillin-resistant Staphylococcus aureus ATCC 43300 after 16 to 18 hrs by broth microdilution method
# Type: functional
# Conditions: time 16-18 hrs
row,Structure (SMILES),MIC [µg/mL]
1,CCCC[C@H](CN(O)C=O)C(=O)N1CCC[C@H]1C(=O)Nc1ccc(F)c[n+]1[O-],0.25
2,CC(=O)NC[C@H]1CN(c2ccc(N3CCOCC3)c(F)c2)C(=O)O1 [LINEZOLID],1

# System: Acinetobacter baumannii
# Experiment: Antibacterial activity against drug-resistant Acinetobacter baumannii Bio 53272 after 16 to 18 hrs by broth microdilution method
# Type: functional
# Conditions: time 16-18 hrs
row,Structure (SMILES),MIC [µg/mL]
1,CCCC[C@H](CN(O)C=O)C(=O)N1CCC[C@H]1C(=O)Nc1ccc(F)c[n+]1[O-],> 16
2,CC(=O)NC[C@H]1CN(c2ccc(N3CCOCC3)c(F)c2)C(=O)O1 [LINEZOLID],> 16

# System: Staphylococcus aureus
# Experiment: Antibacterial activity against methicillin-susceptible Staphylococcus aureus ATCC 25923 after 16 to 18 hrs by broth microdilution method
# Type: functional
# Conditions: time 16-18 hrs
row,Structure (SMILES),MIC [µg/mL]
1,CCCC[C@H](CN(O)C=O)C(=O)N1CCC[C@H]1C(=O)Nc1ccc(F)c[n+]1[O-],0.5
2,CC(=O)NC[C@H]1CN(c2ccc(N3CCOCC3)c(F)c2)C(=O)O1 [LINEZOLID],1

# System: Staphylococcus aureus
# Experiment: Antibacterial activity against methicillin-resistant Staphylococcus aureus ATCC 33591 after 16 to 18 hrs by broth microdilution method
# Type: functional
# Conditions: time 16-18 hrs
row,Structure (SMILES),MIC [µg/mL]
1,CCCC[C@H](CN(O)C=O)C(=O)N1CCC[C@H]1C(=O)Nc1ccc(F)c[n+]1[O-],0.125
2,CC(=O)NC[C@H]1CN(c2ccc(N3CCOCC3)c(F)c2)C(=O)O1 [LINEZOLID],1

# System: Escherichia coli
# Experiment: Antibacterial activity against Escherichia coli ATCC 10663 after 16 to 18 hrs by broth microdilution method
# Type: functional
# Conditions: time 16-18 hrs
row,Structure (SMILES),MIC [µg/mL]
1,CCCC[C@H](CN(O)C=O)C(=O)N1CCC[C@H]1C(=O)Nc1ccc(F)c[n+]1[O-],16
2,CC(=O)NC[C@H]1CN(c2ccc(N3CCOCC3)c(F)c2)C(=O)O1 [LINEZOLID],64

# System: Staphylococcus aureus
# Experiment: Antibacterial activity against methicillin-susceptible Staphylococcus aureus ATCC 13709 after 16 to 18 hrs by broth microdilution method
# Type: functional
# Conditions: time 16-18 hrs
row,Structure (SMILES),MIC [µg/mL]
1,CCCC[C@H](CN(O)C=O)C(=O)N1CCC[C@H]1C(=O)Nc1ccc(F)c[n+]1[O-],0.25
2,CC(=O)NC[C@H]1CN(c2ccc(N3CCOCC3)c(F)c2)C(=O)O1 [LINEZOLID],1

# System: not listed separately
# Experiment: Aqueous solubility of compound at 0.9% aqueous NaCl solution incubated for 2 hrs by UV spectrophotometry analysis
# Type: physicochemical
# Conditions: not given
row,Structure (SMILES),solubility at 2 h [µg/mL]
1,CCCC[C@H](CN(O)C=O)C(=O)N1CCC[C@H]1C(=O)Nc1ccc(F)c[n+]1[O-],1650

# System: not listed separately
# Experiment: Methemoglobin toxicity in human blood at 500 uM incubated for 6 hrs by MetHb content assay
# Type: tissue-based
# Conditions: not given
row,Structure (SMILES),Activity
1,CCCC[C@H](CN(O)C=O)C(=O)N1CCC[C@H]1C(=O)Nc1ccc(F)c[n+]1[O-],Toxic

# System: not listed separately
# Experiment: Cytotoxicity against human HEK293T cells assessed as cell viability at 3.125 to 100 uM incubated for 24 hrs by MTT assay
# Type: toxicity, cell-based, HEK-293T
# Conditions: not given
row,Structure (SMILES),IC50 at 24 h [µM]
1,CCCC[C@H](CN(O)C=O)C(=O)N1CCC[C@H]1C(=O)Nc1ccc(F)c[n+]1[O-],> 100
2,CC(=O)NC[C@H]1CN(c2ccc(N3CCOCC3)c(F)c2)C(=O)O1 [LINEZOLID],> 100

# System: Staphylococcus epidermidis
# Experiment: Antibacterial activity against Staphylococcus epidermidis after 16 to 18 hrs by broth microdilution method
# Type: functional
# Conditions: time 16-18 hrs
row,Structure (SMILES),MIC [µg/mL]
1,CCCC[C@H](CN(O)C=O)C(=O)N1CCC[C@H]1C(=O)Nc1ccc(F)c[n+]1[O-],0.25
2,CC(=O)NC[C@H]1CN(c2ccc(N3CCOCC3)c(F)c2)C(=O)O1 [LINEZOLID],8

# System: Staphylococcus aureus
# Experiment: Antibacterial activity against methicillin-susceptible Staphylococcus aureus ATCC 29213 after 16 to 18 hrs by broth microdilution method
# Type: functional
# Conditions: time 16-18 hrs
row,Structure (SMILES),MIC [µg/mL]
1,CCCC[C@H](CN(O)C=O)C(=O)N1CCC[C@H]1C(=O)Nc1ccc(F)c[n+]1[O-],0.25
2,CC(=O)NC[C@H]1CN(c2ccc(N3CCOCC3)c(F)c2)C(=O)O1 [LINEZOLID],1

# System: Acinetobacter baumannii
# Experiment: Antibacterial activity against Acinetobacter baumannii Bio 53250 after 16 to 18 hrs by broth microdilution method
# Type: functional
# Conditions: time 16-18 hrs
row,Structure (SMILES),MIC [µg/mL]
1,CCCC[C@H](CN(O)C=O)C(=O)N1CCC[C@H]1C(=O)Nc1ccc(F)c[n+]1[O-],32
2,CC(=O)NC[C@H]1CN(c2ccc(N3CCOCC3)c(F)c2)C(=O)O1 [LINEZOLID],128

# System: Acinetobacter baumannii
# Experiment: Antibacterial activity against Acinetobacter baumannii Bio 69680 after 16 to 18 hrs by broth microdilution method
# Type: functional
# Conditions: time 16-18 hrs
row,Structure (SMILES),MIC [µg/mL]
1,CCCC[C@H](CN(O)C=O)C(=O)N1CCC[C@H]1C(=O)Nc1ccc(F)c[n+]1[O-],16
2,CC(=O)NC[C@H]1CN(c2ccc(N3CCOCC3)c(F)c2)C(=O)O1 [LINEZOLID],128

# System: Acinetobacter baumannii
# Experiment: Antibacterial activity against Acinetobacter baumannii Bio 120982 after 16 to 18 hrs by broth microdilution method
# Type: functional
# Conditions: time 16-18 hrs
row,Structure (SMILES),MIC [µg/mL]
1,CCCC[C@H](CN(O)C=O)C(=O)N1CCC[C@H]1C(=O)Nc1ccc(F)c[n+]1[O-],16
2,CC(=O)NC[C@H]1CN(c2ccc(N3CCOCC3)c(F)c2)C(=O)O1 [LINEZOLID],128

# System: Escherichia coli
# Experiment: Antibacterial activity against Escherichia coli ATCC 10668 after 16 to 18 hrs by broth microdilution method
# Type: functional
# Conditions: time 16-18 hrs
row,Structure (SMILES),MIC [µg/mL]
1,CCCC[C@H](CN(O)C=O)C(=O)N1CCC[C@H]1C(=O)Nc1ccc(F)c[n+]1[O-],32
2,CC(=O)NC[C@H]1CN(c2ccc(N3CCOCC3)c(F)c2)C(=O)O1 [LINEZOLID],128

# System: Acinetobacter baumannii
# Experiment: Antibacterial activity against Acinetobacter baumannii Bio 53272 after 16 to 18 hrs by broth microdilution method
# Type: functional
# Conditions: time 16-18 hrs
row,Structure (SMILES),MIC [µg/mL]
1,CCCC[C@H](CN(O)C=O)C(=O)N1CCC[C@H]1C(=O)Nc1ccc(F)c[n+]1[O-],32
2,CC(=O)NC[C@H]1CN(c2ccc(N3CCOCC3)c(F)c2)C(=O)O1 [LINEZOLID],128

# System: Klebsiella pneumoniae
# Experiment: Antibacterial activity against Klebsiella pneumoniae CICC 21611 after 16 to 18 hrs by broth microdilution method
# Type: functional
# Conditions: time 16-18 hrs
row,Structure (SMILES),MIC [µg/mL]
1,CCCC[C@H](CN(O)C=O)C(=O)N1CCC[C@H]1C(=O)Nc1ccc(F)c[n+]1[O-],64
2,CC(=O)NC[C@H]1CN(c2ccc(N3CCOCC3)c(F)c2)C(=O)O1 [LINEZOLID],128

# System: Staphylococcus aureus
# Experiment: Antibacterial activity against methicillin-resistant Staphylococcus aureus Bio-090770 after 16 to 18 hrs by broth microdilution method
# Type: functional
# Conditions: time 16-18 hrs
row,Structure (SMILES),MIC [µg/mL]
1,CCCC[C@H](CN(O)C=O)C(=O)N1CCC[C@H]1C(=O)Nc1ccc(F)c[n+]1[O-],0.5
2,CC(=O)NC[C@H]1CN(c2ccc(N3CCOCC3)c(F)c2)C(=O)O1 [LINEZOLID],1

# System: Klebsiella pneumoniae
# Experiment: Antibacterial activity against Klebsiella pneumoniae CICC 21092 after 16 to 18 hrs by broth microdilution method
# Type: functional
# Conditions: time 16-18 hrs
row,Structure (SMILES),MIC [µg/mL]
1,CCCC[C@H](CN(O)C=O)C(=O)N1CCC[C@H]1C(=O)Nc1ccc(F)c[n+]1[O-],64
2,CC(=O)NC[C@H]1CN(c2ccc(N3CCOCC3)c(F)c2)C(=O)O1 [LINEZOLID],> 128

# System: Acinetobacter baumannii
# Experiment: Antibacterial activity against Acinetobacter baumannii Bio 34235 after 16 to 18 hrs by broth microdilution method
# Type: functional
# Conditions: time 16-18 hrs
row,Structure (SMILES),MIC [µg/mL]
1,CCCC[C@H](CN(O)C=O)C(=O)N1CCC[C@H]1C(=O)Nc1ccc(F)c[n+]1[O-],32
2,CC(=O)NC[C@H]1CN(c2ccc(N3CCOCC3)c(F)c2)C(=O)O1 [LINEZOLID],128

# System: Escherichia coli
# Experiment: Antibacterial activity against Escherichia coli ATCC 25922 after 16 to 18 hrs by broth microdilution method
# Type: functional
# Conditions: time 16-18 hrs
row,Structure (SMILES),MIC [µg/mL]
1,CCCC[C@H](CN(O)C=O)C(=O)N1CCC[C@H]1C(=O)Nc1ccc(F)c[n+]1[O-],32
2,CC(=O)NC[C@H]1CN(c2ccc(N3CCOCC3)c(F)c2)C(=O)O1 [LINEZOLID],> 128

# System: Escherichia coli
# Experiment: Antibacterial activity against Escherichia coli ATCC 10661 after 16 to 18 hrs by broth microdilution method
# Type: functional
# Conditions: time 16-18 hrs
row,Structure (SMILES),MIC [µg/mL]
1,CCCC[C@H](CN(O)C=O)C(=O)N1CCC[C@H]1C(=O)Nc1ccc(F)c[n+]1[O-],8
2,CC(=O)NC[C@H]1CN(c2ccc(N3CCOCC3)c(F)c2)C(=O)O1 [LINEZOLID],16

# System: Acinetobacter baumannii
# Experiment: Antibacterial activity against Acinetobacter baumannii Bio 24253 after 16 to 18 hrs by broth microdilution method
# Type: functional
# Conditions: time 16-18 hrs
row,Structure (SMILES),MIC [µg/mL]
1,CCCC[C@H](CN(O)C=O)C(=O)N1CCC[C@H]1C(=O)Nc1ccc(F)c[n+]1[O-],32
2,CC(=O)NC[C@H]1CN(c2ccc(N3CCOCC3)c(F)c2)C(=O)O1 [LINEZOLID],128

# System: not listed separately
# Experiment: Cytotoxicity against human HeLa cells assessed as cell viability at 3.125 to 100 uM incubated for 24 hrs by MTT assay
# Type: toxicity, cell-based
# Conditions: not given
row,Structure (SMILES),IC50 at 24 h [µM]
1,CCCC[C@H](CN(O)C=O)C(=O)N1CCC[C@H]1C(=O)Nc1ccc(F)c[n+]1[O-],> 100
2,CC(=O)NC[C@H]1CN(c2ccc(N3CCOCC3)c(F)c2)C(=O)O1 [LINEZOLID],> 100
